Data from article PMC12606464, “Investigating NFE2L1 activators for targeted protein aggregate clearance: a follow-up study” (RSC Medicinal Chemistry, 2025).
Like-named read-outs stand apart in the source and are kept apart here.

Assays:
Assay type in all cases: cell-based, human
HEK293 cells = test: alamarBlue cytotoxicity assessment in HEK293 cells; conditions: for Mean 1 (viability; 0 µM = 100): Fig. S2, n = 3; for Tox [% of ctrl.]: HEK293, alamarBlue, 16 h, concentration not given
Method in brief: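 HEK293 cells exposed 16 h to compound at 1.25, 2.5, 5, 7.5 and 10 µM, with DMSO as vehicle control. Viability read by alamarBlue; means ± SD of three independent experiments.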

[1] = system: NFE2L1-dependent gene expression; test: Quantitative RT-PCR of NFE2L1-dependent genes in HEK293 cells; conditions: 7.5 μM, 16 h; for DNAJA1 mRNA, geometric mean (treatment) / NQO1 mRNA, geometric mean (treatment) / PSMC4 mRNA, geometric mean (treatment) / PSMD12 mRNA, geometric mean (treatment) / SQSTM1 mRNA, geometric mean (treatment) / HSPA1A mRNA, geometric mean (treatment): HEK293, normalized to RPLP0, DMSO control = 1; for DNAJA1 mRNA, geometric mean of ratios / HSPA1A mRNA, geometric mean of ratios / NQO1 mRNA, geometric mean of ratios / PSMC4 mRNA, geometric mean of ratios / PSMD12 mRNA, geometric mean of ratios / SQSTM1 mRNA, geometric mean of ratios: treatment/control, ratio paired t test, HEK293
Description: NFE2L1 enhances the transcription of genes encoding proteasome subunits and molecular chaperones such as heat shock proteins (HSPs). To evaluate whether this effect is elicited by RUN compounds, we performed quantitative real-time PCR (RT-qPCR) analysis in HEK293 cells treated with selected RUN compounds (Fig. 2A).[28,53–55]
Fig. 2 (A) qPCRs of HEK293 cells treated with RUN compounds (7.5 μM) for 16 hours. The extracted RNA was reverse transcribed into cDNA and utilized for RT-qPCR (primers are listed in the SI, Table S1); the mRNA levels of RPLP0 were used for normalization. The experiment was performed in three biological replicates (n = 3). (B) Immunoblot analysis of proteins NFE2L1/TCF11/NRF1, SQSTM1/p62, LC3, NQO1 and HSPA1A/HSP70-1 in HEK293 cells after 16 h treatment with 7.5 μM RUN compounds. The protein levels were quantified by measuring the integrated fluorescence of the corresponding protein bands and normalized to the β-actin load. The full-length (F) and cleaved (C) forms of NFE2L1 were analyzed together. The experiment was performed in four biological replicates (n = 4) except for NFE2L1 (n = 3). (A and B) Results of RUN compounds were compared to the DMSO control using ratio paired t-tests corrected for multiple comparisons with Holm–Šídák's method (α = 0.05). *p < 0.05, **p < 0.01. Detailed results of the analysis are shown in SI Tables S5 and S6. […]
HEK-293 cells were seeded into 12 -well plates and allowed to adhere overnight under standard culture conditions. On the following day, cells were treated with the indicated test compounds or DMSO vehicle control for 16 h. After treatment, cells were lysed directly in the wells, and the resulting lysates were collected for downstream RNA extraction. RNA was extracted using the RNeasy® Plus Micro Kit according to the manufacturer’s instructions. Complementary DNA (cDNA) was synthesized from RNA using either t he TATAA GrandScript cDNA Supermix (TATAA Biocenter) or the QuantiTect® Reverse Transcription Kit (Qiagen), following the respective protocols. Quantitative RT -PCR was performed on a LightCycler® 480 instrument (Roche Life Science) using the TATAA SYBR® Gr andMaster® Mix (TATAA […]
Biocenter). Gene expression levels were normalized to RPLP0, and relative expression was calculated using the ΔΔCt method. Data were expressed as fold change relative to the corresponding DMSO control. Statistical analysis of changes in gene expression was performed w ith a ratio paired t-test corrected for multiple comparisons using Holm-Šídák's method (α = 0.05) in GraphPad Prism (v 10.6.1).
Table S1. Sequences of primer pairs used in the qRT -PCR analysis of gene expression.

SNCA-EGFP = SNCA-EGFP degradation in SH-SY5Y cells
Description: This reporter is prone to aggregation because of its slow protein turnover. To assess compound efficacy, we measured the fluorescence signal of GFP-tagged synuclein within aggregates.
The GFP fluorescence signal was then normalized to that of the DMSO control and the cell number. The experiment was performed in at least five biological replicates. Statistical analysis was performed using paired t-tests with Holm–Šídák correction for multiple comparisons (α = […]
SH-SY5Y cells stably expressing SNCA-EGFP were seeded on a plate and allowed to […]
tadalafil (5 µM), or RUN compounds at a concentration of 1 µM or treated with an equivalent volume of DMSO dissolved in buffer as a vehicle control. The treatment was performed for 16 hours and then fluorescence was measured. The GFP signal intensity was normalized to both the DMSO control and the cell count.

[2] = SH-SY5Y, SNCA-EGFP degron, Figure S7

SMILES | Mean 1 (viability; 0 µM = 100) (HEK293 cells; 5 uM) | Mean 1 (viability; 0 µM = 100) (HEK293 cells; 10 uM) | Mean 1 (viability; 0 µM = 100) (HEK293 cells; 1,125 uM) | Mean 1 (viability; 0 µM = 100) (HEK293 cells; 2,5 uM) | Mean 1 (viability; 0 µM = 100) (HEK293 cells; 7,5 uM) | Tox [% of ctrl.] (HEK293 cells) | DNAJA1 mRNA, geometric mean (treatment) [1] | NQO1 mRNA, geometric mean (treatment) [1] | PSMC4 mRNA, geometric mean (treatment) [1] | PSMD12 mRNA, geometric mean (treatment) [1] | SQSTM1 mRNA, geometric mean (treatment) [1] | DNAJA1 mRNA, geometric mean of ratios [1] | HSPA1A mRNA, geometric mean of ratios [1] | NQO1 mRNA, geometric mean of ratios [1] | PSMC4 mRNA, geometric mean of ratios [1] | PSMD12 mRNA, geometric mean of ratios [1] | SQSTM1 mRNA, geometric mean of ratios [1] | Geometric mean of ratios (paired t tests, Treatment vs Control = 100) (SNCA-EGFP; [2]) | Geometric mean, Treatment (Control = 100) (SNCA-EGFP; [2]) | HSPA1A mRNA, geometric mean (treatment) [1] | also measured
COc1ccc(/C=C2\CC(NC(=O)c3ccccn3)C/C(=C\c3ccc(OC)c(OC)c3)C2=O)cc1OC (centres unmarked) [RUN-94] | 86.01 | 74.87 | 105.6 | 101.6 | 75.79 | 78% of ctrl. | 6.57 | 2.85 | 1.37 | 4.22 | 6.10 | 6.57 | 8.20 | 2.85 | 1.37 | 4.22 | 6.10 | -7.67 | 92.33 | – | –
COc1ccc(/C=C2\CC(NC(=O)C3CCCC3)C/C(=C\c3ccc(OC)c(OC)c3)C2=O)cc1OC (centres unmarked) [RUN-89] | 76.01 | 68.72 | 100.7 | 91.49 | 71.31 | 81% of ctrl. | 7.60 | 2.73 | 2.21 | 5.14 | 5.22 | 7.60 | 8.85 | 2.73 | 2.21 | 5.14 | 5.22 | – | 88.39 | 8.85 | Geometric mean of ratios (paired t tests, Treatment vs Control = 100) (SNCA-EGFP): -11.61
COc1ccc(/C=C2\CC(N)C/C(=C\c3ccc(OC)c(OC)c3)C2=O)cc1OC (centres unmarked) [RUN-81] | 80.55 | 79.08 | 98.04 | 92.22 | 79.02 | 84% of ctrl. | 3.68 | 2.23 | 4.76 | 3.37 | 4.15 | 3.68 | 8.57 | 2.23 | 4.76 | 3.37 | 4.15 | -11.53 | 88.47 | 8.57 | –
